Calls of active or inactive are those of the source.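 How the source made its calls: active means fitted half-maximal concentration for changing reporter fluorescence at or below a set limit; inactive means the rest.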
Molecular target: Citrate synthase, peroxisomal (Saccharomyces cerevisiae (strain ATCC 204508 / S288c)) (UniProt P08679)
Assay: yeast TOR pathway CIT2-GFP reporter potency – flow cytometry, MLPCN hits, dose response (AID 2744)
Conditions: S. cerevisiae CIT2-GFP strain, 3 h; for GFP fluorescence, higher = induction: at 33 µM (top of the series); for EC50: flow cytometry fluorescence

Citrate synthase, peroxisomal (Saccharomyces cerevisiae (strain ATCC 204508 / S288c)), sequence (P08679 whole entry, looked up): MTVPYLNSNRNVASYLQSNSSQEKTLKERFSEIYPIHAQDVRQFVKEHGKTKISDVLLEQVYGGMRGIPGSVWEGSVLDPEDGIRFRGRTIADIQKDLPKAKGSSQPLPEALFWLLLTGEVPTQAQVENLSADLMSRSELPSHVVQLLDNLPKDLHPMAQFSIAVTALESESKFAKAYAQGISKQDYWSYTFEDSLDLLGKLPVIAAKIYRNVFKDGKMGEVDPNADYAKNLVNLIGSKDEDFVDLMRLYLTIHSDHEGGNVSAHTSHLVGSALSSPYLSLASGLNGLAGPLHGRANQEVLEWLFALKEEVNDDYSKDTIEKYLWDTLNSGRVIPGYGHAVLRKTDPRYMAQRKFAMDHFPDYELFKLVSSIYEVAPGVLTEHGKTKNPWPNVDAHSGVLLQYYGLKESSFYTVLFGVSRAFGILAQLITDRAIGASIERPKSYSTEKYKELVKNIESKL

Row | Compound | GFP fluorescence, higher = induction | EC50
1 | Cc1ccc(C2=NN(S(C)(=O)=O)C(c3ccc4c(c3)OCO4)C2)cc1 (stereo unspecified) | inactive | –
2 | O=C(c1ccc(Cl)c([N+](=O)[O-])c1)N1CCN(c2ccccc2)CC1 | inactive | –
3 | N/C(=N\OC(=O)c1cc(Br)ccc1Cl)c1ccccn1 | – | 4.11 µM
4 | COc1ccc(-c2cc3nc4n(c(=O)c3s2)CCC4)cc1 | inactive | –
5 | CC1=CC(=O)C(C(C)C)=C/C1=N/OS(=O)(=O)c1ccccc1 | inactive | –
6 | O=C(OCC(=O)N1CCN(C(=O)c2ccco2)CC1)c1cc(-c2ccc(Cl)c(Cl)c2Cl)nc2ccccc12 | inactive | –
7 | Cc1cc(=O)n2c3c(sc2n1)C(=O)N(Cc1ccccc1)C3=O | inactive | –
8 | CCOc1ccc(NC2=C(Cl)C(=O)N(Cc3ccccc3)C2=O)cc1 | inactive | –
9 | CS(=O)(=O)c1nc(-c2cccs2)cc(C(F)(F)F)n1 | inactive | –
10 | Cc1ccc(C(=O)Sc2cccccc2=O)cc1 | inactive | –
11 | CCOc1ccc(N2C(=O)/C(=C\c3cccs3)C(=O)NC2=S)cc1 | inactive | –
12 | O=C(CSC1=NS(=O)(=O)c2ccccc21)Nc1ccccc1 | inactive | –
13 | COc1cc(SSc2cc(OC)cc([N+](=O)[O-])c2N)c(N)c([N+](=O)[O-])c1 | inactive | –
14 | O=c1c2cnn(-c3ccccc3)c2ncn1Cc1ccco1 | inactive | –
15 | CCN(CC(=O)Nc1cc(S(=O)(=O)N2CCOCC2)ccc1Cl)Cc1ccccc1 | inactive | –
16 | O=c1/c(=C/c2cccc3ccccc23)sc2ncnn12 | inactive | –
17 | CC[C@H](C)/C=C(C)/C=C/C1=CC2=C(Cl)C(=O)[C@@](C)(OC(C)=O)C(=O)C2=CO1 | inactive | –
18 | COc1cc(CNC(=O)CCCCCCC(C)C)ccc1O | inactive | –
19 | Cc1ccc(O)c(N=Nc2nccs2)c1 | – | 11.3 µM
20 | O=C(/C=C/c1ccccc1Cl)c1ccccc(=O)c1O | inactive | –
21 | C[C@H]1C[C@@H](C)C(=O)[C@@H]([C@H](O)CC2CC(=O)NC(=O)C2)C1 | inactive | –

Row | Compound | GFP fluorescence, higher = induction | EC50
22 | COc1ccc(Cl)cc1C(Nc1cccnc1)c1ccc2cccnc2c1O (stereo unspecified) | inactive | –
23 | O=C(/C=C/c1ccccc1)NC(=S)NNC(=O)Cc1cccs1 | inactive | –
24 | Cc1c(NC2=C(Cl)C(=O)N(c3ccccc3Cl)C2=O)c(=O)n(-c2ccccc2)n1C | inactive | –
25 | [O-][n+]1cccc2c(Br)cc(Br)c(O)c21 | inactive | –
26 | COc1ccc(/C=C2\C(=O)ON=C2c2ccccc2)cc1 | inactive | –
27 | O=C(COc1ccc(F)cc1Cl)Nc1nc(-c2ccccn2)cs1 | inactive | –
28 | O=C1C2C3C=CC(CO)(O3)C2C(=O)N1c1ccccc1-c1ccccc1 (stereo unspecified) | inactive | –
29 | O=c1oc2ccccc2c(O)c1[C@H]1c2ccc(O)cc2Oc2c1c(=O)oc1ccccc21 | inactive | –
30 | O=C(/C=C/c1ccc(Cl)c([N+](=O)[O-])c1)c1cccnc1 | inactive | –
31 | O=C(O)c1cccc(S(=O)(=O)Nc2ccc(S(=O)(=O)N3CCOCC3)cc2)c1 | inactive | –
32 | O=C1NC(=O)N(CCc2ccc(F)cc2)C(=O)/C1=C/c1cccs1 | inactive | –
33 | O=C1C=CC(=O)N1N(c1ccccc1)c1ccccc1 | inactive | –
34 | Cc1ccc(S(=O)(=O)c2ccc([N+](=O)[O-])cn2)cc1 | inactive | –
35 | c1ccc(-c2csc(Nc3cccnc3)n2)nc1 | inactive | –
36 | C[n+]1ccc(/C=C/c2c[nH]c3ccccc23)cc1 | inactive | –
37 | CC(=O)c1ccc(N2CCN(C(=O)c3ccc(Br)cc3)CC2)c(F)c1 | inactive | –
38 | O=[N+]([O-])c1c(Nc2ccccn2)cc(Cl)c2nonc12 | inactive | –
39 | CC(=O)CSc1ncnc2c1cnn2-c1ccccc1 | inactive | –
40 | COC(=O)CCC(=O)OC1(C)C(=O)C2=COC(c3ccc(OC)cc3)=CC2=C(Br)C1=O (stereo unspecified) | inactive | –
41 | CCC(=O)Nc1ccc(NC(=O)c2cc3ccccc3o2)cc1 | inactive | –
42 | CCOC(=O)Cn1cc(/C=C/[N+](=O)[O-])c2ccccc21 | inactive | –

Row | Compound | GFP fluorescence, higher = induction | EC50
43 | Cc1ccc(C)c(/C=C/C(=O)c2ccccc(=O)c2O)c1 | inactive | –
44 | O=C1N(c2ccccc2C(F)(F)F)O[C@@]1(c1ccccc1)C1CCCC1 | inactive | –
45 | O=C1C(=O)c2ccccc2-c2ccccc21 | inactive | –
46 | O=C(O)c1ccc(COc2ccccc2C=C2C(=O)c3ccccc3C2=O)cc1 | inactive | –
47 | Oc1c(CN2CCN(c3ccccc3)CC2)cc(Br)c2cccnc12 | inactive | –
48 | O=C(Nc1ccc(O)cc1)C1CCCN1S(=O)(=O)c1ccc(F)cc1 (stereo unspecified) | inactive | –
49 | COC(=O)/C(=C/c1c[nH]c2ccccc12)[N+](=O)[O-] | inactive | –
50 | CC1(C)OC(c2ccccc2)=C/C(=C/C=C2C(=O)NC(=S)NC2=O)O1 | inactive | –
51 | O=[N+]([O-])c1ccc(O)c2ncccc12 | inactive | –
52 | CC(Oc1ccc(Cl)cc1)C(=O)NNC(=S)NC(=O)c1ccco1 (stereo unspecified) | inactive | –
53 | C[C@@]12C(=O)OC(=O)[C@]1(C)C1CCC2O1 | inactive | –
54 | Cc1nn(C)c(C)c1N1C(=O)c2cccc3c(Br)ccc(c23)C1=O | inactive | –
55 | COc1ccc(N/N=C(\C#N)C(N)=O)cc1 | inactive | –
56 | O=C1NC(=O)N(Cc2ccc(F)cc2)C(=O)/C1=C/c1cccs1 | inactive | –
57 | Cc1[nH]n(-c2ccccc2)c(=O)c1C(c1ccccc1[N+](=O)[O-])C(C#N)C#N (stereo unspecified) | inactive | –
58 | O=C1NC(=O)N(c2ccccc2)C(=O)/C1=C/c1ccc(Sc2ccccc2)o1 | inactive | –
59 | Cc1cccc(NC(c2ccc(C)s2)c2ccc3ccc(C)nc3c2O)n1 (stereo unspecified) | inactive | –
60 | CC(=O)N(C1=C(Cl)C(=O)c2ccccc2C1=O)C1CCCCC1 | inactive | –
61 | CCOC(=O)/C(=C\c1cn(C)c2ccccc12)[N+](=O)[O-] | inactive | –

Source: PubChem BioAssay AID2744 (NMMLSC, 2010)
